Laboratory results from patent publication US5300639A, “Thiazolo [5,4-b]azepine compounds” (Takeda Chemical Industries, Ltd., priority 1992, dated 1994).
Counter-ions that a name gives are not always drawn.

How the values were obtained:
[1] = tested on: Behavior change due to the spinal intrathecal injection of ferrous chloride in mice; experiment: Behavior change due to spinal intrathecal injection of ferrous chloride in mice; format: in vivo, Slc:ICR mouse; details: 100 mg/kg p.o., 30 min before i.t. ferrous chloride; for Average score, 100 mg/kg dose: scale 0 (normal) to 5 (death); for Inhibition rate (%): vs saline
Experimental: In male Slc : ICR mouse of 5 weeks age 10 mice per group were used. […] The evaluation point of behavior change was scored according to the following criterion.
The inhibition rate was shown based on the evaluation point under the above criterion. The test compound was orally administered 30 minutes before the i.t. injection of ferrous chloride.

[2] = tested on: lipoperoxide formation in rat's brain homogenate; experiment: Inhibitory action for lipoperoxide formation in rat's brain homogenate (thiobarbituric acid method); format: biochemical; details: read-out: IC50 (M) × 10^-7
Experimental: According to the method by Suno et al. (Japan J. Pharmacol., 35, 196(1984) , the concentration of the compound necessary for 50% inhibition of lipoperoxide formation in rat's brain homogenate was determined by examining the lipoperoxide formation using the thiobarbituric acid method. The results obtained are shown in Table 3.

5-lipoxygenase = molecular target: T1, 5-lipoxygenase (Rattus norvegicus, UniProt P12527); experiment: Inhibitory action on 5-lipoxygenase (5-HETE formation in RBL-1 cells); format: cell-based; details: read-out: Inhibition rate (%) of 5-HETE formation
T1 construct: endogenous in cells; host or cells: RBL-1 (rat basophilic leukemia cells)
T1 sequence (P12527 1-673): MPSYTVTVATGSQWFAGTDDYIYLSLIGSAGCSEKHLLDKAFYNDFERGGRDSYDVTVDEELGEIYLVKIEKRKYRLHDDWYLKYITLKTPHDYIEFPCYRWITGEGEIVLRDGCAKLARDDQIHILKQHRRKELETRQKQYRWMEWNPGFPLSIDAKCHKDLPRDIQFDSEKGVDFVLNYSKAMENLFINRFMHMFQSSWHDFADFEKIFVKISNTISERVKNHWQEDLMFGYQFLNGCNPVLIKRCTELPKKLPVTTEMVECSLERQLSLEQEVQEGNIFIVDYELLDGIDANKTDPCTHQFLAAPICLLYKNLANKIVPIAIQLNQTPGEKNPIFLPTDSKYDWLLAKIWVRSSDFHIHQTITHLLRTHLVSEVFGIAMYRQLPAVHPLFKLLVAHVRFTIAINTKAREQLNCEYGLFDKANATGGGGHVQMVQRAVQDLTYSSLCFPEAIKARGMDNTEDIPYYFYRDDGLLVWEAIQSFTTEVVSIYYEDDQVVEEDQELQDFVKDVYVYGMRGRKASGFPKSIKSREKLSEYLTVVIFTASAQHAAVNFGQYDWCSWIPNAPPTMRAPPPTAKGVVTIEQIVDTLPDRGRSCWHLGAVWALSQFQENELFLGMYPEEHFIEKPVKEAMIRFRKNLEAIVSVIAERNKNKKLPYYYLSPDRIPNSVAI
Experimental: RBL-1 cells (rat basophilic leukemia cells) of 10^7 were suspended in 0.9 ml of MCM (mast cell medium). […] The mixture was incubated at 37° C. for 5 minutes. Then, 0.1 ml of MCM containing 50 μg of arachidonic acid and 10 μg of calcium ionophore A-23187 was added and further the mixture was incubated at 37° C. for 15 minutes. After the reaction, 1 ml of ethanol was added, well shaken and subjected to high performance liquid chromatography to determine 5-HETE. The absorption at 240 nm due to 5-HETE was measured by an ultraviolet abosorption monitor. The inhibition rate of 5-HETE formation is represented by (1-b/a)×100, wherein a is the peak height or area in the absence of the compound (I) and b is that in the presence of the compound (I).

[3] = tested on: Cerebral blood flow after complete cerebral ischemia-reperfusion in dogs; experiment: Effect on cerebral blood flow and cortical water content after complete cerebral ischemia-reperfusion in dogs; format: in vivo, dog (adult mongrel); details: for Decrease rate of γ-CBF 3 hours after reperfusion: control 44.3±1.4%
Experimental: Fourteen adult mongrel dogs were anesthetized with a combination of α-chloralose and urethane. Polyethylene catheters were introduced into the femoral artery and vein. Systemic blood pressure was measured through the cannulated femoral artery with an electromanometer. Heart rate was recorded with a cardiotachometer. The regional cerebral blood flow (γ-CBF) was measured using a thermal diffusion flow probe incorporating a Peltier stack. The animals were subjected to positive-pressure ventilation with room-air. A thoracotomy was performed in the third right intercostal space. […] Occlusion was maintained for 10 minutes. After reperfusion, all physiological variables were continuously recorded for 3 hours. After 3 hours of reperfusion, animals were sacrificed. The regional cerebral cortex was removed, weighed and then dried (48 hours at 120° C.) to remove water content. The test drugs were given intravenously 5 minutes before ischemia.

C(C=Cc1nc2c(s1)NCCCC2)=Cc1ccccc1 [Example 21, 2-(4-Phenylbutadienyl)-5,6,7,8-tetrahydro-4H-thiazolo[5,4-b]azepine]
Average score, 100 mg/kg dose [1]: 1.7
Inhibition rate (%) [1]: 63.0%
IC50 [2]: 7e-07 M

C(=Cc1nc2c(s1)NCCCC2)c1ccccc1.O=C(O)C(=O)O [Example 28, 2-Styryl-5,6,7,8-tetrahydro-4H-thiazolo[5,4-b]azepine oxalate]
inhibition at 1 µM (5-lipoxygenase; 10^-6 M): 95%
inhibition at 0.1 µM (5-lipoxygenase; 10^-7 M): 56%
inhibition at 0.01 µM (5-lipoxygenase; 10^-8 M): 9%
Average score, 100 mg/kg dose [1]: 1.1
Inhibition rate (%) [1]: 76.6%
IC50 [2]: 7e-07 M

Cc1ccc(-c2nc3c(s2)NCCCC3)cc1N [Example 106, 2-(3-Amino-4-methylphenyl)-5,6,7,8-tetrahydro-4H-thiazolo-[5,4-b]azepine dihydrochloride]
Effect on decrease in γ-CBF ([3]; 1 mg/kg, i.v., 3 hours after reperfusion): significantly inhibited a decrease in γ-CBF 3 hours after reperfusion
Water Content (%) of cerebral cortex ([3]; 1 mg/kg, i.v., 3 hours after reperfusion, control 79.81 ± 0.21): 78.22 ± 0.08%
Decrease rate of γ-CBF 3 hours after reperfusion ([3]; 1 mg/kg, i.v.): 18.0±3.1%
Effect on post-ischemia hypoperfusion in γ-CBF ([3]; 10 mg/kg, i.v.): almost completely inhibited the post-ischemia hypoperfusion in γ-CBF
Decrease rate of γ-CBF 3 hours after reperfusion ([3]; 10 mg/kg, i.v.): 6.5±2.5%
Effect on increase in water content in the cerebral cortex ([3]; 3 hours after reperfusion): significantly inhibited the increase in water content in the cerebral cortex 3 hours after reperfusion
Time after reperfusion at which γ-CBF recovered to the pre-occlusion level ([3]; i.v., 5 minutes before ischemia): 30 min
γ-CBF immediately after reperfusion ([3]; i.v., 5 minutes before ischemia, vs control group): transiently increased, with reactive hyperemia to the same extent as that of the control group
